From US9329184B2, “Fluorescent probe” (THE UNIVERSITY OF TOKYO, priority 2011, dated 2016)

Legend:
[1] = Absorption and fluorescence spectra and pH profiles in sodium phosphate buffer; assay type: physicochemical; conditions: for pH-dependent change of absorbance / λabs / λfl: 0.1 M sodium phosphate buffer containing 1% DMSO; for pH-dependent change of absorbance: pH profile; for λabs / λfl: Table 1
Procedure: (§1) Fluorescence was measured with an excitation wavelength of 593 nm.
Fluorescence was measured with an excitation wavelength of 505 nm.
Fluorescence was measured with an excitation wavelength of 590 nm.
Absorption and fluorescence spectra as well as pH profiles of 2-Me SiR600 and the acetylated compound thereof (N-Ac-2-Me SiR600) synthesized in Example 2 were measured. […] Therefore, 2-Me SiR600 in which the amino group at the 3-position is acylated can be functioned as a fluorescent probe for detecting enzymatic activity on the basis of absorption wavelength change with a high S/N ratio, without using the intramolecular photoinduced electron transfer.
In a similar manner, absorption and fluorescence spectra as well as pH profiles of 2-COOH SiR600 and the acetylated compound thereof were measured. […] Therefore, it can be used as a fluorescent probe as shown in the following scheme.
Absorption spectrum of Z-DEVD-SiR600 was measured in a 0.1 M sodium phosphate buffer of pH 3 to 10 containing 1% DMSO. The measurement results are shown in FIG. 5, and the photochemical characteristics are shown in Table 3 mentioned below together with the results for SiR600.

caspase-3 = test: Reaction of fluorescent probe with caspase-3 (absorption/fluorescence before and after); assay type: biochemical; conditions: for absorption maximum wavelength: 20 mM HEPES buffer pH 7.4, 37° C., before/after reaction with caspase-3
Procedure: as §1
Function of Z-DEVD-SiR600 as a fluorescent probe was evaluated by reacting it with caspase-3. Caspase-3 (0.5 μg) was added to Z-DEVD-SiR600 (2 μM), and the mixture was reacted for 10 hours. The reaction was performed at 37° C. in a 20 mM HEPES buffer (pH 7.4, 0.75 ml) containing 100 μM dithiothreitol (DTT), 10% glycerol, 0.1% CHAPS, 100 mM NaCl, and 0.1% DMSO. The absorption spectra and fluorescence spectra observed before and after the reaction (excitation wavelengths are shown in FIG. 6, (b) and (c), respectively, and the kinetics parameters of the reaction are shown in FIG. 6, (d)).

leucine aminopeptidase = test: Reaction of fluorescent probe with leucine aminopeptidase (absorption/fluorescence before and after); assay type: biochemical; conditions: for absorption maximum wavelength: 0.1 M sodium phosphate buffer pH 7.4, 37° C., before/after reaction with leucine aminopeptidase
Procedure: as §1
Function of Leu-SiR600 as a fluorescent probe was evaluated by reacting it with leucine aminopeptidase. Leucine aminopeptidase (0.096 unit) was added to Leu-SiR600 (6 μM), and the mixture was reacted for 2.5 hours. The reaction performed at 37° C. in a 0.1 M sodium phosphate buffer (pH 7.4, 0.75 ml) containing 0.8% DMSO. The absorption spectra and fluorescence spectra observed before and after the reaction are shown in FIG. 7, (b) and (c), respectively.

C[Si]1(C)c2cc(N)ccc2C2(OC(=O)c3ccccc32)c2ccc(N)cc21 [2-COOH SiR600]
pH-dependent change of absorbance [1]: did not substantially show absorbance change at pH higher than the physiological pH region
ΦFL ([1]; Table 2, pH 7.4): 0.26
ε ([1]; Table 2, pH 7.4): 4000 M⁻¹ cm⁻¹
λem ([1]; Table 2, pH 7.4): 610 nm
λex ([1]; Table 2, pH 7.4): 590 nm

Cc1ccccc1C1=C2C=CC(=N)C=C2[Si](C)(C)c2cc(N)ccc21 [2-Me SiR600]
pH-dependent change of absorbance [1]: did not substantially show pH-dependent change of absorbance
maximum absorption wavelength ([1]; Example 4): 593 nm
λabs [1]: 593 nm
λfl [1]: 613 nm
ΦFL ([1]; Table 3, pH 7.4): 0.38
ε ([1]; Table 3, pH 7.4): 91000 M⁻¹ cm⁻¹
λem ([1]; Table 3, pH 7.4): 613 nm
λex ([1]; Table 3, pH 7.4): 593 nm
absorption maximum wavelength (caspase-3): 593 nm
absorption maximum wavelength (leucine aminopeptidase): 593 nm

Cc1ccccc1C1=C2C=CC(=N)C=C2[Si](C)(C)c2cc(NC(=O)[C@H](N)CC(C)C)ccc21 [Leu-SiR600]
absorption maximum wavelength (leucine aminopeptidase): around 500 nm
fluorescence before and after the reaction with leucine aminopeptidase (leucine aminopeptidase; probe 6 μM, leucine aminopeptidase 0.096 unit, 2.5 hours, 37° C., excitation light 593 nm): scarcely observed before the reaction, but extremely strong fluorescence is observed after the reaction

CC(=O)Nc1ccc2c(c1)[Si](C)(C)C1=CC(=N)C=CC1=C2c1ccccc1C [N-Ac-2-Me SiR600, N-Acetyl-2-Me SiR600]
pH-dependent change of absorbance [1]: decreased with decrease of pH
λabs [1]: 505 nm
λfl [1]: 600 nm
shift of maximum absorption wavelength compared with 2-Me SiR600 ([1]; acetylation of the amino group at the 3-position): significantly shifted to the shorter wavelength side

CC(=O)Nc1ccc2c(c1)[Si](C)(C)c1cc(N)ccc1C21OC(=O)c2ccccc21 (stereo not drawn) [N-Acetyl-2-COOH SiR600]
absorption for the visible region ([1]; physiological pH range): not to show absorption for the visible region in the physiological pH range

Z-DEVD-SiR600
pH-dependent change of absorbance [1]: showed pH-dependent absorbance change
ΦFL ([1]; Table 3, pH 3.0): 0.19
ε ([1]; Table 3, pH 3.0): 85000 M⁻¹ cm⁻¹
λem ([1]; Table 3, pH 3.0): 600 nm
λex ([1]; Table 3, pH 3.0): 500 nm
absorption of light around 593 nm ([1]; around the maximum absorption wavelength of SiR600): did not absorb light around the maximum absorption wavelength (593 nm) of SiR600
absorption maximum wavelength (caspase-3): around 500 nm
fluorescence before and after the reaction with caspase-3 (caspase-3; probe 2 μM, caspase-3 0.5 μg, 10 hours, 37° C., excitation light 593 nm): scarcely observed before the reaction, but extremely strong fluorescence is observed after the reaction
